Consider 6 substances from article PMC9523454 (Pharmacology Research & Perspectives, 2022).

Where “and” joins values, the source holds several entries; their conditions need not be identical. Identical values can stand only once. No end group written: not given here.

The test system of one assay is GLP‐1R/GIPR heteromer. In kind it is cell-based, human. Particulars: 1 μM ligand; HEK‐293, fixed ratio of GLP‐1R‐Nluc and GIPR‐SYFP2; mean ± SEM, at least three independent experiments.
For the next assay, the target named is GLP‐1R‐Nluc (human) (UniProt P43220). Put plainly: FRET or BRET. On the technique in general: In BRET a luciferase serves as donor, and the signal depends on an acceptor being close.
UniProt P43220, sequence (P43220 24-463): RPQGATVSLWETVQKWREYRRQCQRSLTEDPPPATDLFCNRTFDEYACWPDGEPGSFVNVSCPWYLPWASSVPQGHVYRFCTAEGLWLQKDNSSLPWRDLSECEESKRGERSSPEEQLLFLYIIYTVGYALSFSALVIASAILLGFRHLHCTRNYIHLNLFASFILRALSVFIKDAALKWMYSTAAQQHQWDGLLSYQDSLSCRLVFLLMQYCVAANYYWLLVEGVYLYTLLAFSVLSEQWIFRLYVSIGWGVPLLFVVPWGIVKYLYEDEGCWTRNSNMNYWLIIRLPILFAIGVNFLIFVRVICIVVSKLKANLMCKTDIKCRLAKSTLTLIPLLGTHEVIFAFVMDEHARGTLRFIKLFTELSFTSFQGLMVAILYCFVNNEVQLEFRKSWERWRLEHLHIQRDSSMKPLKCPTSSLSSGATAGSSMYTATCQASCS
The target of another assay is GIPR‐Nluc (human) (UniProt P48546). Briefly: FRET or BRET.
UniProt P48546, sequence (P48546 22-466): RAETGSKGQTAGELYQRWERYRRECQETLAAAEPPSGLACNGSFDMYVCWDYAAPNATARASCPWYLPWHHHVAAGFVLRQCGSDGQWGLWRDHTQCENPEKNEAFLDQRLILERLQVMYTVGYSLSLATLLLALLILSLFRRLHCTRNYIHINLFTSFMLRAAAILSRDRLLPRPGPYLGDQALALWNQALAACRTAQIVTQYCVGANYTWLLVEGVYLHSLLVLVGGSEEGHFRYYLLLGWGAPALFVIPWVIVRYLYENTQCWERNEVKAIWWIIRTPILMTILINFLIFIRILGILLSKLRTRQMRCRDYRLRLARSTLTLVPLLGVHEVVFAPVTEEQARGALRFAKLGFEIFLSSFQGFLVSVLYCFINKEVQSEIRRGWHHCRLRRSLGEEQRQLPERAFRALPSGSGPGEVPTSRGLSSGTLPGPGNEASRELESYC
In the next assay the test system is GIPR. Conditions: cited from earlier work.

Turning to “GLP‐1 (9‐36): GLP‐1 metabolite, metabolic breakdown product of GLP‐1 (EGTFTSDVSSYLEGQAAKEFIAWLVKGR-NH2; UniProt P01275 100-127, looked up, fragment)”, the “Change in BRET ratio vs non‐stimulated cells” value in the assay on GLP‐1R/GIPR heteromer was “significantly increased the BRET ratio (p < .001)”. As to NES‐Venus‐mGαq, the pEC50 of the agonist GLP-1 for recruitment in the assay with GLP‐1R‐Nluc (human) is 7.8 -log EC50/M and 7.7 -log EC50/M and 7.9 -log EC50/M. Besides, in the assay with GIPR‐Nluc (human), the pEC50 of the agonist GIP for recruitment was 8 -log EC50/M and 7.6 -log EC50/M and 7.8 -log EC50/M. In the case of NES‐Venus‐mGαs, the pEC50 of the agonist GLP-1 for recruitment in the assay with GLP‐1R‐Nluc (human) was 7.8 -log EC50/M and 7.5 -log EC50/M and 7.7 -log EC50/M. With exendin‐4 (9–39), the “Change in BRET ratio vs non‐stimulated cells” value in the assay with GLP‐1R/GIPR heteromer is “no significant effect on BRET ratio”. Turning to “Oxyntomodulin: posttranslational product of proglucagon and an endogenous dual GLP‐1R/glucagon receptor agonist (HSQGTFTSDYSKYLDSRRAQDFVQWLMNTKRNRNNIA; Oxyntomodulin; UniProt P01275 53-89, looked up)”, the “Change in BRET ratio vs non‐stimulated cells” value in the assay on GLP‐1R/GIPR heteromer was “no effect on BRET ratio”. “(Pro3)GIP: previously reported to be a GIPR antagonist but subsequently shown to be a low potency GIPR agonist; custom synthesized (YAPGTFISDYSIAMDKIHQQDFVNWLLAQKGKKNDWKHNITQ; Gastric inhibitory polypeptide; UniProt P09681 52-93, looked up, variant E3P)”: in the assay with GLP‐1R/GIPR heteromer, the “Change in BRET ratio vs non‐stimulated cells” value is listed as “no effect on BRET ratio”. Further, the “Activity at GIPR” value in the assay with GIPR is on record as “low potency GIPR agonist”.
